According to patent publication US20100297223A1, “PHARMACEUTICAL DOSAGE FORM COMPRISING A LIQUID OR FLOWABLE CORE COMPOSITION” (ABBOTT GMBH & CO. KG, priority 2007, published 2010):

What was measured:
Miscibility with water = format: physicochemical
[1] = Water activity aw of capsule fill (Pawkit water activity meter); format: physicochemical; conditions: fill emptied from gelatine capsules size 00, 24 h after capsule preparation
From the text: Water activity aw is a measure of unbound free water in a system that is available to support chemical (or biological) reactions. It is defined as the vapour pressure of water divided by that of pure water at the same temperature. When a composition is in moisture equilibrium with its environment, its water activity is quantitatively equal to the relative humidity in head space of a container containing the composition, divided by 100. In particular during prolonged periods of storage, an excess of free water will migrate into the capsule shell and soften and eventually liquefy the capsule material. There are several factors that control water activity in a system. Dissolved species, e.g. salts, or sugars, interact with water through dipole-dipole, ionic, and hydrogen bonds. […] Water activity can be measured with commercially available equipment, such as the Pawkit water activity meter available from Decagon Devices, Inc. For the purposes herein, the water activity aw is suitably measured at a temperature of 25° C. […]
Twenty-four hours after the capsule preparation, the initial values of water activity and mechanical strength of the capsule shell were measured.
Capsules were stored for three months at 25° C., 60% relative humidity and 40° C., 75% relative humidity, respectively. Then, water activity and mechanical strength of the capsule shell were measured. […]

With CC(CCN1CCCC1=O)N1CCCC1=O (centres unmarked) [1,3-bis-(pyrrolidon-1-yl)-butane] the Miscibility with water (Miscibility with water) was “miscible with water in any ratio” and the “aw (water activity), Initial” value [1] was 0.12.
